Source: paper PMC3561402, “Signaling Pathways of ESE-16, an Antimitotic and Anticarbonic Anhydrase Estradiol Analog, in Breast Cancer Cells” (PLoS ONE, 2013)

Molecular target: T1, carbonic anhydrase II (wild-type CAII) (Homo sapiens, UniProt P00918)
T1 construct: gene CA2
Assay: […] exchange, membrane inlet mass spectrometry; Henderson tight-binding analysis
Type: biochemical

## CCc1cc2c(cc1OS(N)(=O)=O)CC[C@@H]1[C@@H]2CC[C@]2(C)C=CC[C@@H]12 [ESE-16, 2-ethyl-3-O-sulphamoyl-estra-1,3,5(10)16-tetraene]
  Ki: 569 ± 61 nM
